Laboratory results published in PMC5831858, “Pharmacological characterisation of CR6086, a potent prostaglandin E2 receptor 4 antagonist, as a new potential disease-modifying anti-rheumatic drug” (Arthritis Research & Therapy, 2018).
pIC50: −log10 of the molar value. Marks after values point to notes of the source that are not given here.

Key:
[1] = tested on: arthritic mice (collagen-induced arthritis model); assay: FACS analysis of cell populations in the joint, CIA mice; format: in vivo, mouse; conditions: CR6086 60 mg/kg, naproxen 60 mg/kg, etanercept 10 mg/kg, mean ± SEM
Description: In a first study, mice were randomised into the following treatment groups: vehicle, 30 mg/kg CR6086, 60 mg/kg CR6086, 60 mg/kg naproxen and 10 mg/kg etanercept. Animals received the test drugs for 10 days. CR6086 and naproxen were administered orally once daily, whereas etanercept was administered intraperitoneally every other day. Animals treated with vehicle, 60 mg/kg CR6086, naproxen and etanercept were additionally analysed for the proportion of populations of Th17 cells, Th1 cells, regulatory T cells, B cells, macrophages, neutrophils and dendritic cells by fluorescence-activated cell sorting (FACS) after collection of blood, draining lymph nodes and joints.

SKCa channel = assay: Ion channel SKCa binding; conditions: [^125I]apamin, Rat cerebral cortex
human EP4 receptor = target: T1, human EP4 receptor (Homo sapiens, UniProt P35408); assay: AlphaScreen cAMP functional assay, PGE2-stimulated HEK293 membranes; format: biochemical
T1 construct: expressed in transfected cells
Description: In studies of CR6086 as a functional receptor antagonist, we took advantage of the evidence that activated EP4 receptors couple with Gs proteins to stimulate adenylyl cyclase and increase cyclic adenosine monophosphate (cAMP) cellular levels. Cell membranes prepared from the HEK293 cell line were suspended in 1 ml of stimulation buffer (Hanks’ balanced salt solution 1× + BSA 0.1% + 3-isobutyl-1-methylxanthine 0.5 mM + HEPES 5 mM + MgCl2 10 mM + guanosine triphosphate 1 nM + guanosine diphosphate 10 μM + adenosine triphosphate 100 μM, pH 7.4). The AlphaScreen cAMP functional assay (PerkinElmer) was used according to the manufacturer’s instructions. Because AlphaScreen beads are light-sensitive, the cAMP assay was performed under subdued laboratory lighting, and any incubation involving the beads was carried out in the dark. The assay is based on the competition between endogenous cAMP and exogenously added biotinylated cAMP. The capture of cAMP is achieved by using a specific antibody conjugated to […]. Cell membranes were dispensed into white 384-well microplates at a final concentration of 1 μg per well. […] After 1 h of incubation, the plate was read using the EnVision platform (PerkinElmer) to determine the cAMP level (excitation 680 nm, emission 520 or 620 nm). […]

AT1 = AT1 (Homo sapiens, UniProt P30556); assay: Angiotensin receptor AT1 binding; conditions: [^125I][Sar^1, IIe^8]-AT-II, Human recombinant HEK-293 cells, read-out: CR6086 Activity at 10µM
D4,4 = D4,4 (Homo sapiens, UniProt P21917); assay: Dopamine receptor D4,4 binding; conditions: [^3H]methyl-spiperone, Human recombinant CHO cells, read-out: CR6086 Activity at 10µM
µ (MOP) = µ (MOP) (Homo sapiens, UniProt P35372); assay: Opioid receptor µ (MOP) binding; conditions: [^3H]DAMGO, Human recombinant HEK-293 cells, read-out: CR6086 Activity at 10µM
[2] = tested on: Cl^- channel (GABA-gated); assay: Ion channel Cl- (GABA-gated) binding; conditions: [^35S]TBPS, Rat cerebral cortex
ER = assay: Nuclear receptor ER binding; conditions: [^3H]estradiol, MCF-7 cells
FP = FP (Homo sapiens, UniProt P43088); assay: Eicosanoid receptor FP binding; conditions: [^3H]PGF2α, HEK-293 cells, read-out: CR6086 Activity at 10µM
PPARγ = PPARγ (Homo sapiens, UniProt P37231); assay: Nuclear receptor PPARγ binding; conditions: [^3H]rosiglitazone, Human recombinant E.Coli, read-out: CR6086 Activity at 10µM
D2S = D2S (Homo sapiens, UniProt P14416); assay: Dopamine receptor D2S binding; conditions: [^3H]methyl-spiperone, Human recombinant HEK-293 cells, read-out: CR6086 Activity at 10µM
H2 = H2 (Homo sapiens, UniProt P25021); assay: Histamine receptor H2 binding; conditions: [^125I]APT, Human recombinant CHO cells, read-out: CR6086 Activity at 10µM
ETB = ETB (Homo sapiens, UniProt P24530); assay: Endothelin receptor ETB binding; conditions: [^125I]endothelin-1, Human recombinant CHO cells, read-out: CR6086 Activity at 10µM
V1a = V1a (Homo sapiens, UniProt P37288); assay: V1a receptor binding; conditions: [^3H]AVP, Human recombinant CHO cells, read-out: CR6086 Activity at 10µM
[3] = tested on: arthritic mice (collagen-induced arthritis model); assay: Serum anti-bCII IgG antibodies (ELISA), CIA mice third study; format: in vivo, mouse; conditions: 30 mg/kg CR6086, end of treatment
Description: In a third study, mice were randomised into the following treatment groups: naive, vehicle, 30 mg/kg CR6086, 1 or 3 mg/kg MTX, with the latter administered alone or in combination with 30 mg/kg CR6086. CR6086 was administered orally once daily. MTX was administered intraperitoneally three times per week (every third day). Mice were treated with test drugs for 16 days.
At the end of the treatment period, animals were killed, and their paws were explanted and processed for histology. In the third study, the serum concentrations of immunoglobulin G (IgG) antibodies against bCII were measured by ELISA (catalogue number 2032; Chondrex, Redmond, WA, USA).

CysLT1 (Cys-LTs) = CysLT1 (Cys-LTs) (Homo sapiens, UniProt Q9Y271); assay: Eicosanoid receptor CysLT1 binding; conditions: [^3H]LTD4, HEK-293 cells, read-out: CR6086 Activity at 10µM
CysLT1 (Cys-LTs), sequence (Q9Y271 whole entry, species assumed): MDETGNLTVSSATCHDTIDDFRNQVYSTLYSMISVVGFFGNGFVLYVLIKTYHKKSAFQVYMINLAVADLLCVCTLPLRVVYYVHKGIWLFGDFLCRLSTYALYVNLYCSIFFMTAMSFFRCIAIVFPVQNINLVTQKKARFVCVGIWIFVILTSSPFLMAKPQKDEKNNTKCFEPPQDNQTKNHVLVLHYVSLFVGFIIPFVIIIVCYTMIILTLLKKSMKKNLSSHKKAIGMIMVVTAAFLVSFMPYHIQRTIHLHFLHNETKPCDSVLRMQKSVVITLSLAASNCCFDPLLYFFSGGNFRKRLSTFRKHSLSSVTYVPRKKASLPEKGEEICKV

T1 sequence (P35408 whole entry): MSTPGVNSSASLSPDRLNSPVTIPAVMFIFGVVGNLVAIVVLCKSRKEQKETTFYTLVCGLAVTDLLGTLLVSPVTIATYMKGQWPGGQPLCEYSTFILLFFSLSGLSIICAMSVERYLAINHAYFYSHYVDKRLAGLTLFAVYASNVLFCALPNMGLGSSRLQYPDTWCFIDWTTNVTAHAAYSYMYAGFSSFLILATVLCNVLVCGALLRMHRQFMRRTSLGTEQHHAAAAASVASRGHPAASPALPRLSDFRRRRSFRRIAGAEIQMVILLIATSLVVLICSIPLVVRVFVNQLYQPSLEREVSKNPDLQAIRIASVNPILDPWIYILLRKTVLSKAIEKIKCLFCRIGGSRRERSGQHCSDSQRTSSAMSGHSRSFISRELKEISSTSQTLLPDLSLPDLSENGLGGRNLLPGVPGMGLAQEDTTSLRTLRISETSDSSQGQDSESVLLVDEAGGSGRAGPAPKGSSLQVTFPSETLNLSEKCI
µ (MOP), sequence (P35372 whole entry): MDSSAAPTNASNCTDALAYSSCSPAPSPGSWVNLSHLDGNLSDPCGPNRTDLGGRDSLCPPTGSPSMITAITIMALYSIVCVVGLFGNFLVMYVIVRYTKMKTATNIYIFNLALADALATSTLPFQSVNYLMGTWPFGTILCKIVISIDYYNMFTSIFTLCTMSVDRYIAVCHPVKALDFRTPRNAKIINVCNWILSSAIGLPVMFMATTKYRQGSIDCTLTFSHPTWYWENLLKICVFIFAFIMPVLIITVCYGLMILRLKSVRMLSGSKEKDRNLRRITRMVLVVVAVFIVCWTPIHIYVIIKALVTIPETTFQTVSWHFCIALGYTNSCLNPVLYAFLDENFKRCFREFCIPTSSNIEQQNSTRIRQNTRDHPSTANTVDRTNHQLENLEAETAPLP
AT1, sequence (P30556 whole entry): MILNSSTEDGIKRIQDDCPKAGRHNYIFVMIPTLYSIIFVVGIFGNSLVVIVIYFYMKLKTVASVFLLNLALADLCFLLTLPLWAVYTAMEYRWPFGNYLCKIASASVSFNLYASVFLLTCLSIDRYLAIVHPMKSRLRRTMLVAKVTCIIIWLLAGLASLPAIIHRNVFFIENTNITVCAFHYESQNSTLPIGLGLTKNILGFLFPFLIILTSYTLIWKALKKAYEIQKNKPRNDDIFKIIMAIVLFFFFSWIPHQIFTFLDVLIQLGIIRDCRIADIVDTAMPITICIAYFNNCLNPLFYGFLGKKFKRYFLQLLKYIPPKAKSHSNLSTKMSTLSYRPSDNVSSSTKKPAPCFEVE
V1a, sequence (P37288 whole entry): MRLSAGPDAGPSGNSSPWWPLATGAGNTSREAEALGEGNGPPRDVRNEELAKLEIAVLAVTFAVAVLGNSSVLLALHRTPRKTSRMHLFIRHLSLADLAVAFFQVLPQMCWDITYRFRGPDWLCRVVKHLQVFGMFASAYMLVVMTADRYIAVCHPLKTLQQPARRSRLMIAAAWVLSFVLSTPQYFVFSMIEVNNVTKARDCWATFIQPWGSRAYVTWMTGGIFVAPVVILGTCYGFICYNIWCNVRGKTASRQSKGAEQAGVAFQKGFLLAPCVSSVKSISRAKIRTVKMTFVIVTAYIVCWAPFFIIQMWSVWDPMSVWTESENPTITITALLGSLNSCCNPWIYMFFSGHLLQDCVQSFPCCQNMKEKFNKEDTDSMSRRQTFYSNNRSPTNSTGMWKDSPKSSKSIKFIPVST
PPARγ, sequence (P37231 whole entry): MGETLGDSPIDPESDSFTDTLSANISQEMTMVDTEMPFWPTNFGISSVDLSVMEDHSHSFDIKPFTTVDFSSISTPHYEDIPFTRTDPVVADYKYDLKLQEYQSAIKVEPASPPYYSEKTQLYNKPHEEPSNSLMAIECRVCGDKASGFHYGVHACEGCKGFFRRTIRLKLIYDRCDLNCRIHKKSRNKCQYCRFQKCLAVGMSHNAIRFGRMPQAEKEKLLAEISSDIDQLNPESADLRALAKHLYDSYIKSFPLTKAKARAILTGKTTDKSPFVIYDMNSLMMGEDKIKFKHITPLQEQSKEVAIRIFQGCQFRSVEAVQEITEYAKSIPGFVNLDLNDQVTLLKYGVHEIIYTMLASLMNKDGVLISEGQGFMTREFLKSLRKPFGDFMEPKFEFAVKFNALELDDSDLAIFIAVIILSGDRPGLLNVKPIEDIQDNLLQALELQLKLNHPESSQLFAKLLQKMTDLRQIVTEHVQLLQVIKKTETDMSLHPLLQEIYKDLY
D4,4, sequence (P21917 whole entry): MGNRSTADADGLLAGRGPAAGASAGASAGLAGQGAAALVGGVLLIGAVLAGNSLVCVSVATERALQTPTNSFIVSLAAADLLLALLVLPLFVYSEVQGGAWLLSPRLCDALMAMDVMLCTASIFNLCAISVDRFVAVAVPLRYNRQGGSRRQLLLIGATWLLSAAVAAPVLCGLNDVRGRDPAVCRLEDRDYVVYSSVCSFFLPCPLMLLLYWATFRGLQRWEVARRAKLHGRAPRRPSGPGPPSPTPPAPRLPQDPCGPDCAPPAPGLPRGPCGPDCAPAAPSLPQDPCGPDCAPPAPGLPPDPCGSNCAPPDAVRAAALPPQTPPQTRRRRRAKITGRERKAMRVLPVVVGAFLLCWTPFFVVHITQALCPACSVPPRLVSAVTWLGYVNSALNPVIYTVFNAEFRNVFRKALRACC
D2S, sequence (P14416 1-414 isoform P14416-2): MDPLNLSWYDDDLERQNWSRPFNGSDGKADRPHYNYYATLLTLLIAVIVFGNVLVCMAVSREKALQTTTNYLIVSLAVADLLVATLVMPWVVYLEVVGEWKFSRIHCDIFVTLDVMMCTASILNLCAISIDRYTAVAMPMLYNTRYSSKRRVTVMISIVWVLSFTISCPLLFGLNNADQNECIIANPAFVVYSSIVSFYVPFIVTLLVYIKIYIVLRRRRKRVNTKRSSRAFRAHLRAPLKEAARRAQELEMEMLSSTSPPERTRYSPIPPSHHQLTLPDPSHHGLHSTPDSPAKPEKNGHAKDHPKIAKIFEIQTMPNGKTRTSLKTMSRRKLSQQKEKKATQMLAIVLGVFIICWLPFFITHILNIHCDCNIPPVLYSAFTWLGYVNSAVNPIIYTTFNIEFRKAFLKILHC
FP, sequence (P43088 whole entry): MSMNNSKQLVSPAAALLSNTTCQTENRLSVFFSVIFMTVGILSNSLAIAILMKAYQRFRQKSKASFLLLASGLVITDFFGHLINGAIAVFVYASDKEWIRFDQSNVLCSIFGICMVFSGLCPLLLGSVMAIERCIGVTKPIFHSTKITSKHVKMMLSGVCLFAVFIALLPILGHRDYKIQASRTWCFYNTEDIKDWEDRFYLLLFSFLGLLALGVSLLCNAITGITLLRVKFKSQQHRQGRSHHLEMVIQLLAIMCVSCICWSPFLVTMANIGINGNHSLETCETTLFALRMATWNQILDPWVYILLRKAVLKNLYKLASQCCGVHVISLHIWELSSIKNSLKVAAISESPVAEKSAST
H2, sequence (P25021 whole entry): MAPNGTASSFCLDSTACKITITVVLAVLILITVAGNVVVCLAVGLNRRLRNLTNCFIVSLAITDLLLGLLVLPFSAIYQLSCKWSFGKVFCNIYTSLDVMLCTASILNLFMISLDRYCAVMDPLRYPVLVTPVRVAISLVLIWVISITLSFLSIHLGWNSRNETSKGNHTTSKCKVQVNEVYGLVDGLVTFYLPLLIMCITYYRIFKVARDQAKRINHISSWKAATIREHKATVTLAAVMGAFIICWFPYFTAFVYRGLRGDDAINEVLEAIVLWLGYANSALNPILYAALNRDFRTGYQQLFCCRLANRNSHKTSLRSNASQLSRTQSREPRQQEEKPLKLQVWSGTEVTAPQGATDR
ETB, sequence (P24530 27-442): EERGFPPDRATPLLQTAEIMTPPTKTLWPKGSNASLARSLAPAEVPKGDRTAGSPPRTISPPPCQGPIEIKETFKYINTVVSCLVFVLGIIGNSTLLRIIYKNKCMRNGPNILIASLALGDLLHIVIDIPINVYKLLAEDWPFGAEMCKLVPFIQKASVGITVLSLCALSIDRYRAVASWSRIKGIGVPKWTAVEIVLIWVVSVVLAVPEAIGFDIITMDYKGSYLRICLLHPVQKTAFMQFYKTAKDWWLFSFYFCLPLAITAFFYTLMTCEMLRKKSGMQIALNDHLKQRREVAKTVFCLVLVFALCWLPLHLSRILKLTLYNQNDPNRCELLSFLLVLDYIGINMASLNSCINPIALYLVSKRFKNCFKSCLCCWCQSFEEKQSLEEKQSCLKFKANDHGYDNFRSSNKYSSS

O=C([O-])c1ccc(C2(NC(=O)[C@H]3CC4(CCN3Cc3ccc(C(F)(F)F)cc3)CC4)CC2)cc1.[Na+] [CR6086, Sodium (R)-4-(1-(6-(4-(trifluoromethyl)benzyl)-6-azaspiro[2.5]octane-5-carboxamido)cyclopropyl)benzoate]
B cells, Percentage of total cells [1]: 6.65 ± 0.72%
Dendritic cells, Percentage of total cells [1]: 1.72 ± 0.44%
Macrophages, Percentage of total cells [1]: 11.14 ± 2.93^a %
Neutrophils, Percentage of total cells [1]: 9.98 ± 2.89^a %
Th1, Percentage of total cells [1]: 0.14 ± 0.03^b %
Th17, Percentage of total cells [1]: 0.06 ± 0.01^b %
Treg, Percentage of total cells [1]: 0.38 ± 0.12%
CR6086 Activity at 10µM (SKCa channel): IN (IN = < 20% displacement or inhibition (all tables))
pIC50 (human EP4 receptor; 3 nM PGE2, HEK293 membranes, read-out: IC50 on PGE2-stimulated cAMP production): 7.66
functional behaviour (human EP4 receptor; cAMP functional assays): pure EP4 antagonist
inhibition at 10 µM (AT1): < 20%
inhibition at 10 µM (D4,4): < 20%
inhibition at 10 µM (µ (MOP)): < 20%
CR6086 Activity at 10µM [2]: IN (IN = < 20% displacement or inhibition (all tables))
CR6086 Activity at 10µM (ER): IN (IN = < 20% displacement or inhibition (all tables))
inhibition at 10 µM (FP): < 20%
inhibition at 10 µM (PPARγ): < 20%
inhibition at 10 µM (D2S): < 20%
inhibition at 10 µM (H2): < 20%
inhibition at 10 µM (ETB): < 20%
inhibition at 10 µM (V1a): < 20%
Anti-collagen II [3]: 324.91 ± 79.82 µg/mL
inhibition at 10 µM (CysLT1 (Cys-LTs)): < 20%
